In brackets after ≈: the same amount, converted by molar mass. Peptide text beside a SMILES is read from it. * marks the point of attachment. Acm = CC(=O)NC*
What was measured:
E. coli HB101 [1] = assay: Bactericidal assay (killing kinetics, colony counts); type: cell-based, Escherichia coli; details: 50% MHB, 1×10^6 CFU/ml, 37°C
Description: During incubation, aliquots were removed at different time intervals, washed in buffered high salt solution (10 mM Na-phosphate, 400 mM NaCl, 10 mM MgCl2), diluted and plated on MH plates. The number of bacterial CFU was determined after approximately 48 h of incubation at 37°C.

C. glutamicum ATCC 13032 = type: cell-based, Corynebacterium glutamicum; details: ATCC 13032, 24 h
Description: (§1) Escherichia coli (ATCC 25922), E. coli HB101, Pseudomonas aeruginosa (ATCC 27853), Staphylococcus aureus (ATCC 9144) and Corynebacterium glutamicum (ATCC 13032) were grown at 37°C in Mueller Hinton agar (MH; Difco Laboratories, Detroit, USA). The yeasts Candida albicans (ATCC 10231) and Saccharomyces cerevisiae spp and the mold Botrytis cinerea 101 [33] were cultivated on potato dextrose agar supplemented with 2% glucose at room temperature (RT).
(§2) Determination of the MIC against bacteria was performed by continuous monitoring of bacterial growth using a Bioscreen C microbiology reader (Labsystems Oy, Helsinki, Finland). The synthetic peptides were tested for antibacterial and antifungal activity at final concentrations (prepared from serial two-fold dilutions) ranging from 0.2 µM to 100 µM. The test was performed in 100-well flat-bottomed honeycomb plates, in which 50 µl peptide solution was incubated with 50 µl of a suspension of an actively growing culture of bacteria diluted to a starting concentration of 2.5×10^5 CFU/ml in Mueller Hinton Broth (MHB). The growth chamber was maintained at 37°C during the incubation period. The absorbance was measured by a turbidometric method with vertical light photometry and a wide band filter (420–580 nm). MIC was defined as the lowest concentration resulting in no visible bacterial growth after 24 h.

P. aeruginosa ATCC 27853 = type: cell-based, Pseudomonas aeruginosa; details: ATCC 27853, 24 h
Description: as §1, §2

Chitin-binding assay = details: 50 µg peptide with 40 mg chitin, washes with 0.1 M NaCl, 1 M NaCl, 10% acetic acid at 95°C; RP-HPLC of supernatants
Description: The ability of arasin 1(1–23) and arasin 1(20–37)-Acm to bind chitin was estimated using a modified protocol from Kawabata et al.. Briefly, 50 µg of peptide was incubated with 40 mg chitin in 800 µl buffer (50 mM Tris-HCl, 0.1 M NaCl, pH 8.0). Sequentially chitin was incubated at RT with 800 µl buffer containing 0.1 M NaCl and 1 M NaCl, respectively, and finally at 95°C with 10% acetic acid. All incubations were performed for 10 min, and chitin was collected by centrifugation at 1000×g for 5 min between each step. Supernatants were subjected to RP-HPLC using a Sunfire™ Prep C18 column (Waters; 100 Å 5 µm; 10×250 mm, MA, USA), with a linear gradient from 8 to 60% acetonitrile and a flow of 3 ml/min over 60 min. Absorbance was monitored at 220 nm and the resulting chromatograms were compared.

S. cerevisiae spp. = type: cell-based, Saccharomyces cerevisiae; details: 48 h
Description: as §1
(§3) Fungal spores were dissolved in potato dextrose broth (Difco, Lawrence, KS, USA) and the cell concentration was determined and adjusted after counting in a Bürker chamber. Botrytis cinerea was filtered through a piece of cotton before counting. An aliquot of 50 µl of fungal spores (final concentration 2×10^5 spores/ml) were inoculated in 96-well Nunclon™ microtitre plates (Nagle Nunc Int. Roskilde, Denmark) along with 50 µl of synthetic peptide dissolved in Milli-Q water. Cultures were grown in a dark moist chamber without shaking at 20°C for S. cerevisiae and B. cinerea, and at 37°C for C. albicans. Growth inhibition was determined microscopically after 48 h of incubation. Inhibitory concentrations (IC50) was defined as the lowest concentration tested which yielded less than 50% visible growth compared to the growth control (fungi). Each peptide was tested in parallels in three individual runs for the antimicrobial assays.

C. albicans ATCC 10231 = type: cell-based, Candida albicans; details: ATCC 10231, 48 h
Description: as §1, §3

E. coli HB101 [2] = assay: Membrane integrity assay II (propidium iodide, flow cytometry); type: cell-based, Escherichia coli; details: 50% MH, 37°C, four independent experiments
Description: The effect of arasin 1(1–23) and cecropin P1 on membrane permeabilization was also studied by measuring the percentage of propidium iodide (PI) positive cells by flow cytometry. Samples of 1×10^6 cells/ml of E. coli HB101 were incubated in 50% MH with peptides at 37°C for different time span. After incubation, PI (Sigma Aldrich, Saint Louis, MO, USA) was added to the peptide-treated bacteria at a final concentration of 10 µg/ml. The cells were analyzed after 4 min of incubation with PI at 37°C in the flow cytometer as described.

E. coli ATCC 25922 = type: cell-based, Escherichia coli; details: ATCC 25922, 24 h
Description: as §1, §2

[3] = test system: E. coli HB101 constitutively expressing the luxCDABE operon; assay: Cell viability assay (luxCDABE luminescence); type: cell-based, Escherichia coli; details: 50% MH, OD600 0.2, 30°C
Description: E.coli HB101 was transformed with the plasmid pCGLS-11 to enable constitutive bacterial luciferase expression from the luxCDABE operon. The resulting strain was used for cell viability assays as follows. An overnight culture in MH medium with ampicillin (100 µg/ml) was pelleted at 3000×g for 10 min and washed in MH medium before re-suspending the cells in 50% MH medium with a final OD600 of approximately 0.2. After 30 min of incubation at 30°C the cells were again adjusted to an OD600 of 0.2. An aliquot of 95 µl of bacterial solution was dispensed into each well of a black 96 well microtiter plate with transparent bottom (Falcon, Bredford, MA, USA). To achieve the indicated concentrations, a multi-channel pipette was used to add 5 µl of a two-fold dilution series of peptide solution in water to 8 wells simultaneously. The plate was loaded into a Perkin-Elmer Envision microtiter plate reader immediately after addition of the peptide (arasin 1(1–23), PR-39(1–26) or cecropin P1) and the measurement started 30 sec later because of handling events and 2 seconds of shaking inside the plate reader. Light production and growth (OD595) of the sensor bacteria was followed for 3 h under repeated shaking cycles before each measurement at 30°C.

S. aureus ATCC 9144 = type: cell-based, Staphylococcus aureus; details: ATCC 9144, 24 h
Description: as §1, §2

[4] = test system: E. coli HB101 expressing eukaryotic luciferase lucGR; assay: Membrane integrity assay I (D-luciferin influx, lucGR luciferase); type: cell-based, Escherichia coli
Source text: Escherichia coli HB101 was transformed with the plasmids pCSS962 and the helper plasmid pGB3 to allow for constitutive expression of the eukaryotic luciferase gene lucGR. The resulting strain was isogenic to the other E. coli strains used. The membrane permeabilization assay used is a modification of the protocol described by Virta et al.. The assay is based on E. coli cells, expressing a eukaryotic luciferase, depending on externally added D-luciferin as a substrate to emit light. At neutral pH the bacterial cytoplasmic membrane efficiently prevents uptake of external D-luciferin. However, disruption of the membrane by e.g. a membrane active AMP enhances D-luciferin influx and thereby induces bacterial light emission. Preparation of the cells and the assay plate was done as described for the viability assay above. However, chloramphenicol (30 µg/ml) was added in addition to ampicillin to the overnight culture, and D-luciferin sodium-salt (Biosynth, Staad, Switzerland) was added to the bacteria to final concentration of 1 mM. To allow shorter measurement intervals, only 8 wells were measured simultaneously. Arasin 1(1–23), PR-39(1–26) and cecropin P1 were tested for their membrane disruptive capacity.

B. cinerea 101 = type: cell-based, Botrytis cinerea; details: 101, 48 h
Description: as §1, §3

E. coli = assay: Antimicrobial activity at varied MH concentration; type: cell-based, Escherichia coli; details: results not shown
Source text: In contrast to the results from E. coli and P. aeruginosa, the C-terminal part of arasin 1(1–23) alone arasin 1(7–23) and 1(9–23) inhibits C. glutamicum and all the fungi. At the same time this antibacterial and antifungal activity is strictly dependent on a fragment between aa 13–23. This indicates a somewhat different mode of action for Gram- negative and Gram-positive bacteria, respectively. Likewise the mode of action against fungi is likely different. It is tempting to speculate that the N-terminal 5–10 amino acids might be involved in arasin 1(1–23) transfer across the outer membrane while the C-terminal part might bind the molecular target which is responsible for growth inhibition at low concentrations. The antimicrobial assays were all performed in MH or potato dextrose medium at a final concentration of 50% strength for bacteria and fungi, respectively. […] This means that the peptides are very sensitive to medium composition, and perhaps also salinity and/or ionic strength. […] In some studies, the use of diluted or poor medium instead of rich medium in MIC and mode of action studies is claimed to increase the sensitivity of the assays, [47]. The reasons of the medium-dependence have not been further evaluated, and 50% MH was used as the standard medium for the mode of action studies.

Compound | effect on viable cell count at MIC (E. coli HB101 [1]; 4 µM (MIC), up to 4 h) | reduction of viable E. coli cells (E. coli HB101 [1]; 20 µM (5×MIC), after 30 min) [log] | MIC C. glutamicum ATCC 13032 (C. glutamicum ATCC 13032) [µM] | MIC P. aeruginosa ATCC 27853 (P. aeruginosa ATCC 27853) [µM] | binding to chitin (Chitin-binding assay) | IC50 (S. cerevisiae spp.) [µM] | IC50 (C. albicans ATCC 10231) [µM] | PI-positive (permeabilized) cells (E. coli HB101 [2]; peptide at 5×MIC (20 µM), 1×10^6 cells/ml) [%] | PI-positive (permeabilized) cells (E. coli HB101 [2]; peptide at 10×MIC (40 µM), after 15 min of treatment) | PI-positive (permeabilized) cells (E. coli HB101 [2]; peptide at MIC (4 µM), 1×10^6 cells/ml, background subtracted) [%] | MIC E. coli ATCC 25922 (E. coli ATCC 25922) [µM] | luminescence compared to untreated bacteria ([3]; after 10 min, at 10-fold MIC) | luminescence compared to untreated bacteria ([3]; at MIC values (5 µM)) | MIC S. aureus ATCC 9144 (S. aureus ATCC 9144) [µM] | light emission (D-luciferin influx) at concentrations above MIC ([4]; 1 mM D-luciferin) | light emission (D-luciferin influx) at concentration around MIC ([4]; compared with cecropin P1 treatment, 1 mM D-luciferin) | time at which permeabilization peaked ([4]; high concentrations of peptide) | IC50 (B. cinerea 101) [µM] | change of antimicrobial activity against E. coli by varying the MH concentration (E. coli)
CC[C@H](C)[C@H](NC(=O)[C@@H]1CCCN1C(=O)[C@H](CCCCN)NC(=O)[C@@H]1CCCN1C(=O)[C@H](CCCNC(=N)N)NC(=O)CNC(=O)[C@@H]1CCCN1C(=O)[C@H](Cc1ccccc1)NC(=O)[C@@H]1CCCN1C(=O)[C@H](CCCNC(=N)N)NC(=O)[C@@H]1CCCN1C(=O)[C@H](CCCNC(=N)N)NC(=O)CNC(=O)[C@@H]1CCCN1C(=O)[C@H](CO)NC(=O)[C@@H]1CCCN1C(=O)[C@H](Cc1c[nH]c2ccccc12)NC(=O)[C@H](CCCNC(=N)N)NC(=O)[C@@H](N)CO)C(=O)N[C@@H](Cc1ccccc1)C(=O)N[C@@H](CCCNC(=N)N)C(=O)N1CCC[C@H]1C(=O)N[C@@H](CCCNC(=N)N)C(=O)O [Arasin 1(1–23)] (H-SRWPSPGRPRPFPGRPKPIFRPR-OH; N-terminus and C-terminus assumed) | inhibition of bacterial growth without decreasing the number of viable cells | 1 | 0.8 (≈ 2.19 µg/mL) | 12.5 (≈ 34.3 µg/mL) | strong binding of the peptide to chitin | 12.5 | 12.5 | 30 | approximately 75% | ~10 | 6.3 (≈ 17.3 µg/mL) | more than 60% | more than 80% | >100 | doubling of light emission | Minimal amounts of light | approximately 10 min | 12.5 | –
Bac7(1–16): fragment of the mammalian proline-rich antimicrobial peptide Bac7 (RRIRPRPPRLPRPRPR; Bactenecin 7; UniProt P19661 131-146, looked up, fragment) | – | – | – | – | – | – | – | – | – | – | – | – | – | – | – | – | – | – | did not change the antimicrobial activity
CC(=O)NCSC[C@H](NC(=O)[C@H](CC(N)=O)NC(=O)[C@H](CSCNC(C)=O)NC(=O)[C@@H]1CCCN1C(=O)[C@H](CCCNC(=N)N)NC(=O)[C@@H]1CCCN1C(=O)[C@H](CCCNC(=N)N)NC(=O)[C@@H](N)Cc1ccccc1)C(=O)N[C@@H](Cc1ccc(O)cc1)C(=O)N[C@@H](C)C(=O)N1CCC[C@H]1C(=O)N1CCC[C@H]1C(=O)N[C@@H](CSCNC(C)=O)C(=O)N1CCC[C@H]1C(=O)N[C@@H](CSCNC(C)=O)C(=O)N[C@@H](CC(=O)O)C(=O)N[C@@H](CCCNC(=N)N)C(=O)N[C@@H](Cc1c[nH]c2ccccc12)C(=O)O [Arasin 1(20–37)-Acm] (H-FRPRPC(Acm)NC(Acm)YAPPC(Acm)PC(Acm)DRW-OH; N-terminus and C-terminus assumed) | – | – | >100 | >100 | did not bind tightly to chitin | > 100 | > 100 | – | – | – | >100 | – | – | >100 | – | – | – | > 100 | –
